Consider four molecules from patent US20230172912A1, “COMPOUNDS FOR TREATING PNEUMONIA, SEPSIS, AND CORONAVIRUS INFECTION” (HEIDELBERG IMMUNOTHERAPEUTICS GMBH, priority 2020, published 2023).

Series [1] has as its system serum cytokines and chemokines (IL-6, MIP-1b, IP-10, M-CSF). The series can be described thus: Clinical laboratory IL-6 and research serum cytokine and chemokine multiplex analysis before and after maraviroc. The class given is in vivo, human. On the procedure:
(§1) Clinical laboratory parameters were monitored daily. If patients gave voluntary consent, additional blood for cytokine and chemokine profiling in a research context was obtained and stored at -80° C. until use in the multiplex analysis (Bio-Plex Pro Human Cytokine 48-Plex Screening Panel plus ICAM and VCAM, Biorad, Munich, Germany) as described previously (Halama N, Michel S, Kloor M, et al., Cancer Res 2011;71:5670-7). Median protein concentrations per patient were compared in two groups: before and five or more days after the first day of maraviroc treatment.
For research cytokine analyses, cytokines which were undetectable in more than 3 samples were excluded. Correction for batch effects from three experiments was performed using the Python packagepycombat (version 0.14), and was validated by analyzing the mixture of samples within UMAP embeddings (McInnes L, Healy J, Melville J. UMAP: Uniform Manifold Approximation and Projection for Dimension Reduction. arXiv 2018). Wilcoxon signed-rank tests were used when comparing cytokine concentrations between groups. Resulting p-values were adjusted for multiple hypothesis testing according to the Benjamini and Hochberg method (Benjamini Y, Hochberg Y., J R Stat Soc B 1995;57:289-300). Kaplan-Meier estimator of survival was employed to visualize cumulative clinical improvement. Hazard ratio and the logrank test were used to compare improvement between patients in different groups using the R packages survival, survminer, and cmprsk. Stated percentages and quartiles include rounded numbers. Statistical analyses were carried out using R-3.5.3, Python-3.6.4, Excel (Microsoft), and SigmaPlot (Systat Software, Inc).

Series [2] relates to SARS-CoV-2 pneumonia. The series can be described thus: Time course of clinical inflammation parameters (CRP, transferrin saturation, IL-6) in serum of COVID-19 pneumonia patients. It counts as in vivo, human. The settings on record: COVID-19 pneumonia patients on standard therapy (piperacillin/tazobactam, caspofungin, hydroxychloroquine), FIG. 1. How it is done:
Patients with diagnosed SARS-CoV-2 pneumonia received standard therapy with piperacillin/tazobactam, caspofungin, and hydroxychloroquine; where deemed clinically necessary, additionally Maraviroc, a CCR5 inhibitor, was administered as indicated in FIG. 1.
Patient characteristics were as follows: • Patient A (FIG. 1A): person, no relevant previous disease; • Patient B (FIG. 1B): person; • Patient C (FIG. 1C): person, no relevant previous disease; • Patient D (FIG. 1 D): person, state after chemotherapy for Burkitt lymphoma; under artificial respiration; • Patient E (FIG. 1E): person; • Patient F (FIG. 1 F): person; • Patient G (FIG. 1G): person, under artificial respiration; • Patient H (FIG. 1 H):person; • Patient I (FIG. 1 I): person; • Patient K (FIG. 1 K): person

The nature of series [3]: Safety and clinical laboratory parameters during maraviroc treatment of severe COVID-19. The class given is in vivo, human. On the procedure: as §1
Monitoring of clinical laboratory parameters also included, among others, serum levels of creatinine for kidney function, white blood count, lymphocyte count, and interleukin 6 (IL-6) as markers of inflammation and infection.

In series [4] the test system is severe COVID-19 (SARS-CoV-2 infection). It counts as in vivo.
For series [5], the system named is interleukin 6 (IL-6). The settings on record: 5 of 6 patients (range 83 to 8175 pg per milliliter), three days after administration; cited from earlier work.
The subject of series [6] is SARS-CoV-2. The settings on record: severe COVID-19 cases; preprint; cited from earlier work.
Setting [7] is: serum, subset of 14 patients, p<0.05, not significant after adjustment for multiple testing.
Where [8] appears, read: Patient 43, day 5, decreased on days 6 and 7.
Where [9] appears, read: patients who received at least one dose before or concomitant to maraviroc.

Values joined by “and” are separate entries in the source; they are usually repeats but may differ in a detail not shown here. Equal entries are not always repeated. Where two headings read alike, the source gives them in different places.

Consider `Cc1nnc(C(C)C)n1[C@@H]1C[C@H]2CC[C@@H](C1)N2CC[C@H](NC(=O)C1CCC(F)(F)CC1)c1ccccc1` [maraviroc, 4,4-difluoro—N—[(1S)-3-[(1S,5R)-3-(3-methyl-5-propan-2-yl-1,2,4-triazol-4-yl)-8-azabicyclo[3.2.1]octan-8-yl]-1-phenylpropyl]cyclohexane-1-carboxamide], for which the “change in concentration of MIP-1b (CCL4) from before to after treatment” value in series [1] (serum, subset of 14 patients, after = 5 days or more after baseline, FIG. 5) is given as “significant increase”. Also, in series [1] (setting [7]), the “change in IP-10 (CXCL10) from before to after treatment” value is “decrease”. In addition, in series [1] (setting [7]), the “change in M-CSF (CSF1) from before to after treatment” value is reported as “decrease”. Further, in series [1] (three days after administration, decrease from baseline median 74.7 pg per milliliter, p-value=0.002), the “median IL-6 level” value is recorded as 37.7 pg per milliliter. Further, in series [2], the “increase of inflammation markers after administration” value is “reverted in a very fast manner in all cases”. Moreover, the novel adverse events entry in series [3] (47 severe COVID-19 patients) is listed as “no novel AEs have been observed”. Further, the “increase in ALT from baseline” value in series [3] (setting [8]) stood at 2.8 fold. The “increase in AST from baseline” value in series [3] (setting [8]) came out at 3.6 fold. Also, the “adverse event grade (CTCAE v5.0)” value in series [3] (Patient 43, liver function) is given as “grade 2, moderate liver function AE”. Further, the “other changes of clinical laboratory parameters” value in series [3] (creatinine, white blood count, lymphocyte count, IL-6 among others, monitored daily) is “no other clinically significant changes were observed”. Also, in series [4] (IQR 7-16 days), the “median time to a substantial clinical improvement from baseline” value came out at 9 days. Moreover, the “median time to improvement on the ordinal scale from baseline” value amounted to 8 days in series [4] (all patients who improved, IQR 5-13 days); 14 days in series [4] (invasive ventilation at baseline, IQR 5-19 days); 7 days in series [4] (not receiving invasive ventilation at baseline, IQR 5-11 days). For the same molecule, the “patients with improvement on the 6-stage ordinal scale” value in series [4] (breathing ambient air at baseline, 2 of 2 patients) is reported as 100%; in series [4] (invasive ventilation at baseline, 8 of 11 patients), 72.7%; in series [4] (non-invasive ventilation at baseline, 7 of 11 patients), 63.6%; in series [4] (overall cohort, 37 of 47 patients, baseline until last day of data acquisition), 78.7%; in series [4] (supplemental low-flow oxygen at baseline, 20 of 23 patients) it was 87%. For the same molecule, the “patients worsened (died), mortality” value in series [4] (invasive mechanical ventilation at baseline, 1 of 11 patients, 40 day observational period) is 9.1% and 9%. Moreover, the “patients remained under invasive ventilation” value in series [4] (invasive ventilation at baseline, 2 of 11 patients) was 18.2%. Also, the “patients showing an improvement during the observational period” value in series [4] (maraviroc patients not treated with HCQ, 14 of 18) is 77.9%; in series [4] (maraviroc patients treated with at least one dose of HCQ, 22 of 29), 75.9%. Also, the “median time to improvement” value in series [4] (maraviroc patients not treated with HCQ, IQR 3-11 days) amounted to 7 days; in series [4] (maraviroc patients treated with at least one dose of HCQ, IQR 3-13 days), 6 days. Moreover, in series [4] (one patient of 47, after or during maraviroc treatment), the “patients worsened from non-invasive to invasive ventilation” value amounted to 2.1%. In addition, the “patients with no change on the 6-stage ordinal scale” value in series [4] (overall cohort, 4 of 47 patients) was determined as 8.5%. In addition, the “deaths (overall mortality)” value in series [4] (overall cohort, 5 of 47 patients, 40 day time frame, median follow-up 12 days) was found to be 11%. Further, the “patients worsened on the 6-stage ordinal scale” value in series [4] (overall cohort, 6 of 47 patients, including deaths) was 12.8%. In series [4] (overall cohort, 29 of 47 patients), this molecule had a patients discharged of 61.7%. Also, the “patients with substantial clinical improvement (decrease of two stages or more or discharge)” value in series [4] (overall cohort, 34 of 47 patients, day of final data acquisition) came out at 72%. Further, the “clinical outcome of coronavirus infection / severe COVID-19 cases” value in series [4] (overall statement) was “remarkably positive clinical outcomes”. Also, the “patients with no change” value in series [4] (without invasive mechanical ventilation at baseline, 2 of 36 patients) amounted to 5.6%. The patients worsened in series [4] (without invasive mechanical ventilation at baseline, 5 of 36 patients) turned out to be 13.9%. In addition, the patients improved in series [4] (without invasive mechanical ventilation at baseline, 29 of 36 patients) is on record as 80.6%.
In the case of `C[C@]12C=CC(=O)C=C1CC[C@@H]1[C@@H]2[C@@H](O)C[C@@]2(C)[C@H]1CC[C@]2(O)C(=O)CO` [prednisolone], the “number of patients who died” value in series [4] (in vivo) is listed as 1. Also, in series [4] (setting [9]), the “number of patients improved on the ordinal scale from baseline” value is on record as 3 of 7, the “number of patients with no change on the ordinal scale from baseline” value is 2 and the “number of patients worsened on the ordinal scale from baseline” value is listed as 2.
As for “tocilizumab: concomitant investigational treatment”, in series [4] (setting [9]), the “number of patients who died” value was 3, the “number of patients with no change on the ordinal scale from baseline” value is 1 of 4 and the “number of patients worsened on the ordinal scale from baseline” value amounted to 3.

B1: leronlimab: humanized IgG4 monoclonal antibody that blocks the chemokine receptor CCR5 on immune cells (antibody, chains of the INN, looked up, V domains shown)
VH: EVQLVESGGGLVKPGGSLRLSCAASGYTFSNYWIGWVRQAPGKGLEWIGDIYPGGNYIRNNEKFKDKTTLSADTSKNTAYLQMNSLKTEDTAVYYCGSSFGSNYVFAWFTYWGQGTLVTVSS
VL: DIVMTQSPLSLPVTPGEPASISCRSSQRLLSSYGHTYLHWYLQKPGQSPQLLIYEVSNRFSGVPDRFSGSGSGTDFTLKISRVEAEDVGVYYCSQSTHVPLTFGQGTKVEIK
In the case of B1, the “change of high IL-6 levels” value in series [5] was “decreased substantially”. For the same molecule, the “change in plasma viral load” value in series [6] was “decrease”.
